Consider 22 compounds from patent publication US8546377B2 (AbbVie Inc., priority 2009, dated 2013).

For one assay, the target named is T1, 5HT2B receptors (Homo sapiens, UniProt P41595).
T1 construct: expressed in transfected cells; host or cells: CHO-K1 cells
The experiment in a line: Human 5-HT2B functional assay in CHO-K1 cells (calcium flux, FLIPR). It counts as cell-based. In a few lines: (§1)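 EC50 came from a 4-parameter logistic fit, with Emax expressed relative to serotonin, of intracellular Ca2+ rises read on FLIPR at 480/530 nm, 25° C, over 3 min. Compounds ran from 10 μM in six 1:10 steps (0.2% DMSO) on serum-starved CHO-K1 transfectants pre-loaded 60 min with Ca4 dye and probenecid.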

Another assay has as its target T2, 5HT2C receptors (Homo sapiens, UniProt P28335).
T2 sequence (P28335 33-458): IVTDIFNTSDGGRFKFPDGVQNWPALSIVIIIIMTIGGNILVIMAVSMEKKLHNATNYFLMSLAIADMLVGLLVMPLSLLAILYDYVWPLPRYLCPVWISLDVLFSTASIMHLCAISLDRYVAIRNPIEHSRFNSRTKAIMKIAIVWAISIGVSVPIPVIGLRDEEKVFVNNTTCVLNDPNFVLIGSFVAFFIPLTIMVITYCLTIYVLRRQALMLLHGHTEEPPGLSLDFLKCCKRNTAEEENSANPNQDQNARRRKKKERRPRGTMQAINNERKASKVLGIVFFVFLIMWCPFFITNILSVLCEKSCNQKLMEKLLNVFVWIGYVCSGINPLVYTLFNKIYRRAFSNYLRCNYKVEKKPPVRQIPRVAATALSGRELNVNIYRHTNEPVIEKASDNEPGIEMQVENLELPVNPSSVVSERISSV
Nature of the assay: Human 5-HT2C functional assay in CHO-K1 cells (calcium flux, FLIPR). The assay is classed as cell-based. Further details: expressed in transfected cells; host or cells: CHO-K1 cells. In a few lines:
as §1

[1] abbreviates: CHO-K1, read-out: Emax (%), 5-HT2c Agonist Activity, CHO-K1 cells, percentage relative to the effect of serotonin.
Setting [2] is: CHO-K1, read-out: Emax (%), 5-HT2B Agonist Activity.
[3] abbreviates: CHO-K1 cells over-expressing 5HT2B, calcium flux, read-out: EC50 (μM), 5-HT2B Agonist Activity.
[4] abbreviates: CHO-K1 cells over-expressing 5HT2C, calcium flux, read-out: EC50 (μM), 5-HT2c Agonist Activity.
Setting [5] is: CHO-K1 cells, percentage relative to the effect of serotonin, read-out: Emax (%), 5-HT2c Agonist Activity.
The mark [6] stands for this setting: CHO-K1 cells, percentage relative to the effect of serotonin, read-out: Emax (%), 5-HT2B Agonist Activity.

Like-named read-outs stand apart in the source and are kept apart here.

T1 sequence (P41595 whole entry): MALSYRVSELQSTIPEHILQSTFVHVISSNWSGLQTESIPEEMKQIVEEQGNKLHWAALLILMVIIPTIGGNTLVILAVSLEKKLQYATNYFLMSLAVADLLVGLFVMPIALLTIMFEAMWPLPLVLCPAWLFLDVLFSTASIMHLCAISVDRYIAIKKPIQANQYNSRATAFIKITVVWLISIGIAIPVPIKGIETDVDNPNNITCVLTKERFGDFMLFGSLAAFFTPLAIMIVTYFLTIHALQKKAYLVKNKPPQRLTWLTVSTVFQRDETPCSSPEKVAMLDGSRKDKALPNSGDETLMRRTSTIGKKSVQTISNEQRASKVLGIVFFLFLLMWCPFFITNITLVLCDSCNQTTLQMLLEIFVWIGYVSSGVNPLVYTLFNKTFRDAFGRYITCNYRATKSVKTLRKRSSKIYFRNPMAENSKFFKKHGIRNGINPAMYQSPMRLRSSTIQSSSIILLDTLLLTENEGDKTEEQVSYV

As to `CCN1CCN2c3ccccc3OCC[C@H]2C1` [Example 235, (4aS)-3-ethyl-2,3,4,4a,5,6-hexahydro-1H-pyrazino[2,1-d][1,5]benzoxazepine], the EC50 is more than 10 µM at 5HT2B receptors and 0.02 µM at 5HT2C receptors. Further, the maximal effect (Emax) at 5HT2C receptors (setting [1]) is 100%.

`Clc1ccc2c(c1)OCC[C@H]1CNCCN21` [Example 179, (4aS)-9-chloro-2,3,4,4a,5,6-hexahydro-1H-pyrazino[2,1-d][1,5]benzoxazepine]: the EC50 on 5HT2B receptors is more than 10 µM; at 5HT2C receptors, 0.008 µM. Besides, the Emax at 5HT2C receptors (setting [1]) was more than 120%.

`C[C@@H]1CN2c3ccccc3OCC[C@H]2CN1` [Example 266, (2R,4aS)-2-methyl-2,3,4,4a,5,6-hexahydro-1H-pyrazino[2,1-d][1,5]benzoxazepine]: the figures for the concentration for a half-maximal effect (EC50) on 5HT2B receptors and at 5HT2C receptors were 0.5 µM and 0.1 µM, respectively. Moreover, the Emax worked out at 15% at 5HT2B receptors (setting [2]) and 70% on 5HT2C receptors (setting [1]).

Take `Fc1ccc2c(c1)OCC[C@@H]1CNCCN21` [Example 256, (4aR)-9-fluoro-2,3,4,4a,5,6-hexahydro-1H-pyrazino[2,1-d][1,5]benzoxazepine]: the EC50 was found to be 0.06 µM on 5HT2B receptors and 0.001 µM on 5HT2C receptors. In addition, the values for the Emax on 5HT2B receptors (setting [2]) and at 5HT2C receptors (setting [1]) were 80% and 90%, respectively.

Take `FCCN1CCN2c3ccccc3OCC[C@H]2C1` [Example 240, (4aS)-3-(2-fluoroethyl)-2,3,4,4a,5,6-hexahydro-1H-pyrazino[2,1-d][1,5]benzoxazepine]: the maximum response (Emax) was 10% on 5HT2B receptors (setting [2]) and 90% on 5HT2C receptors (CHO-K1, read-out: Emax (%), 5-HT2c Agonist Activity). Moreover, the half-maximal effective concentration (EC50) at 5HT2B receptors (setting [3]) was determined as 1 µM; at 5HT2C receptors (setting [4]) it was 0.04 µM.

`C[C@H](Cc1ccccc1)Oc1ccc2c(c1)N1CCNCC1CC(=O)N2` (stereo partly drawn) [Example 159, 10-{[(2R)-1-phenylpropan-2-yl]oxy}-1,2,3,4,4a,5-hexahydropyrazino[1,2-a][1,5]benzodiazepin-6(7H)-one]: the figures for the EC50 at 5HT2B receptors (setting [3]) and on 5HT2C receptors (setting [4]) were more than 10 µM and 0.00402 µM, respectively. In addition, on 5HT2C receptors (setting [5]), the Emax is more than 120%.

As to `c1cc(-c2ccc3c(c2)N2CCNC[C@@H]2CCO3)co1` [Example 224, (4aS)-10-(3-furyl)-2,3,4,4a,5,6-hexahydro-1H-pyrazino[2,1-d][1,5]benzoxazepine], the results for the EC50 on 5HT2B receptors (setting [3]) and at 5HT2C receptors (setting [4]) were 0.4 µM and 0.1 µM, respectively. Moreover, the values for the maximal response (Emax) at 5HT2B receptors (setting [6]) and at 5HT2C receptors (setting [5]) were 40% and 85%, respectively.

Consider `C[C@H]1CN2c3ccccc3OCC[C@H]2CN1` [Example 271, (2S,4aS)-2-methyl-2,3,4,4a,5,6-hexahydro-1H-pyrazino[2,1-d][1,5]benzoxazepine], for which the EC50 is more than 10 µM at 5HT2B receptors and 0.1 µM on 5HT2C receptors. Besides, on 5HT2C receptors (setting [1]), the maximum response (Emax) is 50%.

With `CC(O)c1cccc(-c2ccc3c(c2)N2CCNC[C@@H]2CCO3)c1` (stereo partly drawn) [Example 222, 1-{3-[(4aS)-2,3,4,4a,5,6-hexahydro-1H-pyrazino[2,1-d][1,5]benzoxazepin-10-yl]phenyl}ethanol], the EC50 on 5HT2B receptors (setting [3]) is 0.4 µM; on 5HT2C receptors (setting [4]), 0.0008 µM. The results for the Emax on 5HT2B receptors (setting [6]) and on 5HT2C receptors (setting [5]) were 50% and 100%, respectively.

`O=C1CC2CNCCN2c2ncccc2N1` (stereo not shown) [Example 150, 7,7a,8,9,10,11-hexahydropyrazino[1,2-d]pyrido[3,2-b][1,4]diazepin-6(5H)-one]: the values for the 50% effective concentration (EC50) at 5HT2B receptors (setting [3]) and at 5HT2C receptors (setting [4]) were more than 10 µM and 0.2 µM, respectively. Besides, at 5HT2C receptors (setting [1]), the Emax was more than 120%.

As for `O=C1CC2CNCCN2c2cc(OCc3ccccc3C(F)(F)F)ccc2N1` (stereo not shown) [Example 157, 10-{[2-(trifluoromethyl)benzyl]oxy}-1,2,3,4,4a,5-hexahydropyrazino[1,2-a][1,5]benzodiazepin-6(7H)-one], the half-maximal effective concentration (EC50) on 5HT2B receptors (setting [3]) is more than 10 µM; at 5HT2C receptors (setting [4]), 0.0295 µM. Besides, the Emax on 5HT2C receptors (setting [5]) is more than 120%.

Take `CC(C)=Cc1ccc2c(c1)N1CCNC[C@@H]1CCO2` [Example 208, (4aS)-10-(2-methylprop-1-en-1-yl)-2,3,4,4a,5,6-hexahydro-1H-pyrazino[2,1-d][1,5]benzoxazepine]: the values for the EC50 at 5HT2B receptors (setting [3]) and at 5HT2C receptors (setting [4]) were 0.1 µM and 0.001 µM, respectively. The results for the Emax on 5HT2B receptors (setting [6]) and at 5HT2C receptors (setting [5]) were 50% and more than 120%, respectively.

With `O=C1CC2CNCCN2c2cc(-c3cccc(-c4ccccc4)c3)ccc2N1` (stereo not shown) [Example 59, 10-(biphenyl-3-yl)-1,2,3,4,4a,5-hexahydropyrazino[1,2-a][1,5]benzodiazepin-6(7H)-one], the figures for the EC50 at 5HT2B receptors (setting [3]) and on 5HT2C receptors (setting [4]) were more than 10 µM and 0.04 µM, respectively. Besides, the maximal effect (Emax) at 5HT2C receptors (setting [5]) was more than 120%.

With `Fc1ccc2c(c1)N1CCNC[C@H]1CCO2` [Example 258, (4aR)-10-fluoro-2,3,4,4a,5,6-hexahydro-1H-pyrazino[2,1-d][1,5]benzoxazepine], the 50% effective concentration (EC50) on 5HT2B receptors came out at 0.007 µM; at 5HT2C receptors, 0.01 µM. Besides, the Emax at 5HT2B receptors (setting [2]) and on 5HT2C receptors (setting [1]) was 80% in each case.

Take `CS(=O)(=O)c1cccc(-c2ccc3c(c2)OCC[C@H]2CNCCN32)c1` [Example 238, (4aS)-9-[3-(methylsulfonyl)phenyl]-2,3,4,4a,5,6-hexahydro-1H-pyrazino[2,1-d][1,5]benzoxazepine]: the EC50 is more than 10 µM at 5HT2B receptors (setting [3]) and 0.3 µM at 5HT2C receptors (setting [4]). For the same compound, the Emax on 5HT2C receptors (setting [5]) was 90%.

With `CN1C(=O)CC2CNCCN2c2ccc(Cl)cc21` (stereo not shown) [Example 80, 9-chloro-7-methyl-1,2,3,4,4a,5-hexahydropyrazino[1,2-a][1,5]benzodiazepin-6(7H)-one], the half-maximal effective concentration (EC50) on 5HT2B receptors (setting [3]) is more than 10 µM; on 5HT2C receptors (setting [4]), 0.6 µM. Moreover, the Emax on 5HT2C receptors (setting [1]) worked out at 100%.

As for `O=C1CC2CNCCN2c2cc(-c3ccsc3)ccc2N1` (stereo not shown) [Example 72, 10-(3-thienyl)-1,2,3,4,4a,5-hexahydropyrazino[1,2-a][1,5]benzodiazepin-6(7H)-one], the 50% effective concentration (EC50) stood at 2 µM at 5HT2B receptors (setting [3]) and 0.07 µM at 5HT2C receptors (setting [4]). Moreover, the Emax on 5HT2B receptors (setting [6]) is 20%; at 5HT2C receptors (setting [5]), more than 120%.

Consider `O=C1CC2CNCCN2c2cc(C3CC3)ccc2N1` (stereo not shown) [Example 52, 10-cyclopropyl-1,2,3,4,4a,5-hexahydropyrazino[1,2-a][1,5]benzodiazepin-6(7H)-one], for which the concentration giving a half-maximal response (EC50) is more than 10 µM on 5HT2B receptors (setting [3]) and 0.05 µM on 5HT2C receptors (setting [4]). For the same compound, the maximum response (Emax) on 5HT2C receptors (setting [5]) was more than 80%.

Take `CCc1ccc2c(c1)N1CCNC[C@@H]1CCO2` [Example 211, (4aS)-10-ethyl-2,3,4,4a,5,6-hexahydro-1H-pyrazino[2,1-d][1,5]benzoxazepine]: the values for the EC50 on 5HT2B receptors and at 5HT2C receptors were 0.04 µM and 0.02 µM, respectively. In addition, the Emax on 5HT2B receptors (setting [2]) was found to be 45%; on 5HT2C receptors (setting [1]) it was 70%.

Turning to `O=C1CC2CNCCN2c2cc(-c3cc4ccccc4s3)ccc2N1` (stereo not shown) [Example 75, 10-(1-benzothiophen-2-yl)-1,2,3,4,4a,5-hexahydropyrazino[1,2-a][1,5]benzodiazepin-6(7H)-one], the concentration for a half-maximal effect (EC50) at 5HT2B receptors (setting [3]) is more than 10 µM; at 5HT2C receptors (setting [4]), 1 µM. For the same compound, the maximal response (Emax) on 5HT2C receptors (setting [5]) was determined as 80%.

On to `CC(=O)c1cccc(-c2ccc3c(c2)N2CCNC[C@@H]2CCO3)c1` [Example 198, 1-{3-[(4aS)-2,3,4,4a,5,6-hexahydro-1H-pyrazino[2,1-d][1,5]benzoxazepin-10-yl]phenyl}ethanone], for which the EC50 on 5HT2B receptors (setting [3]) worked out at 1 µM; at 5HT2C receptors (setting [4]), 0.01 µM. The maximal response (Emax) at 5HT2B receptors (setting [6]) was 25%; on 5HT2C receptors (setting [5]) it was more than 120%.

Turning to `O=C1CC2CNCCN2c2cc(-c3csc4ccccc34)ccc2N1` (stereo not shown) [Example 66, 10-(1-benzothiophen-3-yl)-1,2,3,4,4a,5-hexahydropyrazino[1,2-a][1,5]benzodiazepin-6(7H)-one], the EC50 at 5HT2B receptors (setting [3]) is more than 10 µM; at 5HT2C receptors (setting [4]), 0.09 µM. Further, the Emax at 5HT2C receptors (setting [5]) came out at 100%.
